From doi:10.1101/2025.10.21.683780 (bioRxiv, 2025)

Columns and labels:
OATP1B3 = biological target: T1, OATP1B3 (Homo sapiens, UniProt Q9NPD5); format: cell-based; settings: hek293 cells
T1 construct: gene SLCO1B3
T1 sequence (Q9NPD5 1-702): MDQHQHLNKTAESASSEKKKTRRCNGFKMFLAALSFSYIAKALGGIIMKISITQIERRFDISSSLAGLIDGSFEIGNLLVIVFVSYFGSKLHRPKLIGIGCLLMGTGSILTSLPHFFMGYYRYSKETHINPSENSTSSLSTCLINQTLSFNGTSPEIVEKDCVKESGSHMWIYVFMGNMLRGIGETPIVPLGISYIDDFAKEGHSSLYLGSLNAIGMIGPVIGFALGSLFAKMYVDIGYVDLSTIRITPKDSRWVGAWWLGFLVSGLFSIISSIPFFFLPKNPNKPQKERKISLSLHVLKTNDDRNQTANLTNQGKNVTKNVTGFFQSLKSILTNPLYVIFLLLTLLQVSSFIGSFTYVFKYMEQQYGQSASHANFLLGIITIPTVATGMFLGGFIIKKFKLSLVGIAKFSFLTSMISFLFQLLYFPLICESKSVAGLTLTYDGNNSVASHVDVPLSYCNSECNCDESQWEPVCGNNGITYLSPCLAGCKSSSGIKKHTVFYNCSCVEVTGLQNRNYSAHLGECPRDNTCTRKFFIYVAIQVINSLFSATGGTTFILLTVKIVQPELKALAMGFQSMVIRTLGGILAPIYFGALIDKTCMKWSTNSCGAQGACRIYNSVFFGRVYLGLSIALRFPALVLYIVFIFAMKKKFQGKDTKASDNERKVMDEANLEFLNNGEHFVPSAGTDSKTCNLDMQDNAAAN

OAT4 = biological target: T2, OAT4 (Homo sapiens, UniProt Q9NSA0); test: inhibition of methotrexate uptake in OAT4-expressing HEK293 cells; also transported; format: cell-based; settings: read-out: Dicloxacillin / IC50 (95% CI)
T2 construct: gene SLC22A11
T2 sequence (Q9NSA0 1-550): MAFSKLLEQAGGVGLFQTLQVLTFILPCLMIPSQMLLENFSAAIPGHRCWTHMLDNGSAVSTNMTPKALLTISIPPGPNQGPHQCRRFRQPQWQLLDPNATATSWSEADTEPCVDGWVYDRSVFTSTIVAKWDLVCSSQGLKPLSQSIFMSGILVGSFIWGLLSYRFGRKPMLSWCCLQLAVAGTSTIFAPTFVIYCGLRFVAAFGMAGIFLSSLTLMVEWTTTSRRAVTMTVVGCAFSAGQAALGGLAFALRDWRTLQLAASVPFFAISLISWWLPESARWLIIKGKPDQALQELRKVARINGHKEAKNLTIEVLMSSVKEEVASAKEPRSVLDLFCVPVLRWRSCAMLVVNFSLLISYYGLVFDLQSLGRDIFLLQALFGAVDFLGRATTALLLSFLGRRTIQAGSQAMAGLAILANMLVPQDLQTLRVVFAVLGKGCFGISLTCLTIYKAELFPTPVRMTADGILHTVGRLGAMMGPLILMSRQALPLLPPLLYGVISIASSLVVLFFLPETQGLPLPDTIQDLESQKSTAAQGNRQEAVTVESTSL

In the case of Cc1onc(-c2c(Cl)cccc2Cl)c1C(=O)N[C@@H]1C(=O)N2[C@@H]1SC(C)(C)[C@@H]2C(=O)O [dicloxacillin], the IC50 (OATP1B3) is reported as 6.68 µM and the IC50 (OAT4) is reported as 7.23 µM.
